Results taken from ChEMBL document CHEMBL4334518, “Discovery and Pharmacological Studies of 4-Hydroxyphenyl-Derived Phosphonium Salts Active in a Mouse Model of Visceral Leishmaniasis” (J Med Chem, 2019).
Active and inactive are the calls of the source. The calls are words filed in the database; no cut-off is given here.

Assays:
THP-1 = experiment: Cytotoxicity against human THP1 cells assessed as reduction in cell viability after 72 hrs by MTT assay; format: cell-based; conditions: THP-1, 72 h
Leishmania donovani [1] = experiment: Antileishmanial activity against Leishmania donovani MHOM/ET/67/HU3 intracellular amastigotes infected in human THP1 cells after 96 hrs by prolong-gold antifade-reagent/DAPI staining based assay; format: functional, organism-based; conditions: MHOM/ET/67/HU3, THP-1, 96 h
[2] = Selectivity index, ratio of EC50 for cytotoxicity against human THP1 cells to EC50 for antileishmanial activity against Leishmania donovani MHOM/ET/67/HU3 amastigotes infected in human THP1 cells; format: toxicity, cell-based; conditions: read-out: Ratio EC50
Leishmania donovani [3] = experiment: Antileishmanial activity against Leishmania donovani MHOM/ET/67/HU3 promastigote after 72 hrs by MTT assay; format: functional, organism-based; conditions: MHOM/ET/67/HU3, 72 h
[4] = Selectivity index, ratio of EC50 for cytotoxicity against human MRC5 cells to EC50 for antileishmanial activity against Leishmania donovani MHOM/ET/67/HU3 amastigotes infected in human THP1 cells; format: toxicity, cell-based; conditions: read-out: Ratio EC50
[5] = Metabolic stability in human liver S9 fraction at 5 to 10 uM measured for 120 mins in presence of NADPH by RP-HPLC analysis; format: ADME, subcellular; conditions: s9, 2 h
[6] = Apparent terminal half life in BALB/c mouse at 20 mg/kg, po measured for 6 to 72 hrs by HPLC analysis; format: ADME, organism-based; conditions: in vivo, read-out: betat1/2(app) (converted)
Leishmania infantum [7] = experiment: Induction of plasma membrane permeabilization in Leishmania infantum LEM 3049 isolate promastigotes 0.02 to 1 uM incubated for 2 hrs by SYTOX Green based flow cytometric analysis; format: functional, organism-based
Leishmania infantum [8] = experiment: Antileishmanial activity against Leishmania infantum LEM 3049 isolate promastigotes infected in BALB/c mouse assessed as reduction in parasite burden in spleen at 1.5 mg/kg, po administered for 4 days and measured 2 days post last dose by light microscopic method relative to control; parameters: scale not given: the % may be the effect or the level left
Leishmania infantum [9] = experiment: Antileishmanial activity against MIL/paromomycin resistant Leishmania infantum LEM 2126 isolate promastigote after 72 hrs by MTT assay; format: functional, organism-based
[10] = Plasma concentration in BALB/c mouse infected with Leishmania infantum LEM 3049 isolate promastigotes at 1.5 mg/kg, po administered for 4 days and measured 2 days post last dose by HPLC analysis; conditions: in vivo, 48 h, BLD = below limit of detection
[11] = Solubility of the compound in water; format: physicochemical; conditions: buffer
[12] = Half life in human liver microsomes at 10 to 20 uM measured for 120 mins in presence of UDPGA by RP-HPLC analysis; format: ADME, Microsome
Leishmania infantum [13] = experiment: Antileishmanial activity against Leishmania infantum LEM 3049 isolate promastigote after 72 hrs by MTT assay; format: functional, organism-based
Leishmania infantum [14] = experiment: Antileishmanial activity against Sb 3 resistant Leishmania infantum LEM 3329 isolate promastigote after 72 hrs by MTT assay; format: functional, organism-based
Leishmania infantum [15] = experiment: Induction of apoptosis in Leishmania infantum LEM 3049 isolate promastigotes assessed as DNA fragmentation at 0.02 to 5 uM after 4 hrs by TUNEL assay; format: functional, organism-based
Leishmania infantum [16] = experiment: Induction of mitochondrial membrane potential loss in Leishmania infantum LEM 3049 isolate promastigotes at 0.02 uM after 30 mins by JC-1 dye based flow cytometric analysis relative to control; format: functional
[17] = Half life in CD-1 mouse liver microsomes at 5 to 10 uM measured for 120 mins in presence of NADPH by RP-HPLC analysis; format: ADME, Microsome
[18] = Acute toxicity in BALB/c mouse at 20 mg/kg, po; format: organism-based; conditions: in vivo
[19] = Half life in CD-1 mouse liver microsomes at 10 to 20 uM measured for 120 mins in presence of UDPGA by RP-HPLC analysis; format: ADME, Microsome
Leishmania donovani [20] = experiment: Potency index, ratio of amphotericin B EC50 to test compound EC50 for antileishmanial activity against Leishmania […] amastigote infected in THP1 cells; format: functional
[21] = Plasma concentration in BALB/c mouse infected with Leishmania infantum LEM 3049 isolate promastigote at 1.5 mg/kg, po for 4 days by HPLC analysis
Leishmania infantum [22] = experiment: Induction of ROS generation in Leishmania infantum LEM 3049 isolate promastigotes at 1 uM after 2 hrs by H2DCFDA staining based flow cytometric analysis relative to control; format: functional
[23] = Tmax in BALB/c mouse at 20 mg/kg, po measured for up to 72 hrs by HPLC analysis; format: ADME, organism-based; conditions: in vivo
Leishmania infantum [24] = experiment: Antileishmanial activity against Leishmania infantum LEM 3049 isolate promastigotes assessed as decrease in ATP level at 0.1 uM after 120 mins by CellTiter-Glo luminescence assay relative to control; format: functional; parameters: scale not given: the % may be the effect or the level left
[25] = Half life in human liver microsomes at 5 to 10 uM measured for 120 mins in presence of NADPH by RP-HPLC analysis; format: ADME, Microsome
Leishmania infantum [26] = experiment: Antileishmanial activity against Leishmania infantum LEM 3049 isolate intracellular amastigotes infected in human THP1 cells after 96 hrs by prolong-gold antifade-reagent/DAPI staining based assay; format: functional, organism-based; conditions: THP-1, 96 h, read-out: EC50
[27] = Drug concentration in BALB/c mouse spleen infected with Leishmania infantum LEM 3049 isolate promastigotes at 1.5 mg/kg, po administered for 4 days and measured 2 days post last dose by HPLC analysis; conditions: in vivo, 48 h, BLD = below limit of detection
Leishmania infantum [28] = experiment: Antileishmanial activity against MIL resistant Leishmania infantum LEM 5159 isolate intracellular amastigotes infected in human THP1 cells after 96 hrs by prolong-gold antifade-reagent/DAPI staining based assay; format: functional, organism-based; conditions: THP-1, 96 h
Leishmania infantum [29] = experiment: Antileishmanial activity against MIL/paromomycin resistant Leishmania infantum LEM 2126 isolate intracellular amastigotes infected in human THP1 cells after 96 hrs by prolong-gold antifade-reagent/DAPI staining based assay; format: functional, organism-based; conditions: THP-1, 96 h
[30] = Thermodynamic solubility of the compound in 5% gamma-cyclodextrin in water (w/w) colloidal suspension; format: physicochemical; conditions: read-out: Therm_solubility
Leishmania infantum [31] = experiment: Antileishmanial activity against Leishmania infantum LEM 3049 isolate promastigotes infected in BALB/c mouse assessed as reduction in parasite burden in liver at 1.5 mg/kg, po administered for 4 days and measured 2 days post last dose by light microscopic method relative to control; parameters: scale not given: the % may be the effect or the level left
Leishmania infantum [32] = experiment: Antileishmanial activity against Leishmania infantum LEM 3049 isolate promastigotes assessed as decrease in ATP level at 1 uM after 120 mins by CellTiter-Glo luminescence assay relative to control; format: functional; parameters: scale not given: the % may be the effect or the level left
Leishmania infantum [33] = experiment: Antileishmanial activity against Leishmania infantum LEM 3049 isolate promastigotes assessed as decrease in ATP level at 0.02 uM after 120 mins by CellTiter-Glo luminescence assay relative to control; format: functional; parameters: scale not given: the % may be the effect or the level left
Leishmania infantum [34] = experiment: Antileishmanial activity against MIL resistant Leishmania infantum LEM 5159 isolate promastigote after 72 hrs by MTT assay; format: functional, organism-based
[35] = Metabolic stability in human liver S9 fraction at 10 to 20 uM measured for 120 mins in presence of UDPGA by RP-HPLC analysis; format: ADME, subcellular; conditions: s9, 2 h
Leishmania infantum [36] = experiment: Antileishmanial activity against Sb 3 resistant Leishmania infantum LEM 3329 isolate intracellular amastigotes infected in human THP1 cells after 96 hrs by prolong-gold antifade-reagent/DAPI staining based assay; format: functional, organism-based; conditions: THP-1, 96 h
Leishmania infantum [37] = experiment: Induction of plasma membrane depolarization in Leishmania infantum LEM 3049 isolate promastigotes incubated for 2 hrs by DiBAC4(3) probe based flow cytometric analysis; format: functional, organism-based
Leishmania infantum [38] = experiment: Antileishmanial activity against Leishmania infantum LEM 3049 isolate promastigotes assessed as decrease in ATP level at 0.02 to 1 uM after 30 mins by CellTiter-Glo luminescence assay relative to control; format: functional; parameters: scale not given: the % may be the effect or the level left
Leishmania infantum [39] = experiment: Induction of mitochondrial membrane potential loss in Leishmania infantum LEM 3049 isolate promastigotes at 1 uM after 24 hrs by JC-1 dye based flow cytometric analysis relative to control; format: functional
[40] = Drug concentration in BALB/c mouse liver infected with Leishmania infantum LEM 3049 isolate promastigotes at 1.5 mg/kg, po administered for 4 days and measured 2 days post last dose by HPLC analysis; conditions: in vivo, 48 h, BLD = below limit of detection
[41] = Primary phase half life in BALB/c mouse at 20 mg/kg, po measured for < 6 hrs by HPLC analysis; format: ADME, organism-based; conditions: in vivo, read-out: alphat1/2 (converted)
[42] = Cmax in BALB/c mouse at 20 mg/kg, po measured for up to 72 hrs by HPLC analysis; format: ADME, organism-based; parameters: dose 20 mg/kg, route oral; conditions: in vivo

`Cc1cc(O)ccc1C(=O)OCCCCCCCCCCCCCC[P+](c1ccccc1)(c1ccccc1)c1ccccn1` showed an EC50 (THP-1) of 2.35 µM, an EC50 (Leishmania donovani [1]) of 0.12 µM and a selectivity ratio [2] of 19.6. The EC50 (Leishmania donovani [3]) was 0.18 µM.

`O=C(OCCCCCCCCCCCCCC[P+](c1ccccc1)(c1ccccc1)c1ccccc1)c1ccc(O)cc1O` gave an EC50 (THP-1) of 3.02 µM, an EC50 (Leishmania donovani [1]) of 0.11 µM and a selectivity ratio [2] of 27.6. For the same compound, the EC50 (Leishmania donovani [3]) was 0.04 µM.

In the case of `O=Cc1ccc(OCCCCCCCCCCCCCC[n+]2cccc3ccccc32)cc1O`, the EC50 (Leishmania donovani [1]) is reported as 0.8 µM and the selectivity ratio [2] is reported as 3.7 to 5.

Compound `COC(=O)c1ccc(OCCCCCCCCCCCCCC[P+](c2ccccc2)(c2ccccc2)c2ccccc2)cc1C` has an EC50 (Leishmania donovani [1]) of less than 1 µM and a selectivity ratio [4] of 2 to 27.

With `O=C(CCCCCCCCCCCCCCC[P+](c1ccccc1)(c1ccccc1)c1ccccc1)c1ccc(O)cc1O.[Br-]` the Stability [5] was “Stable”, the half-life [6] was 23 h and the Activity (Leishmania infantum [7]) was “inactive”. For the same compound, the EC50 (THP-1) was 2.81 µM, the Activity (Leishmania infantum [8]) was 98.9% and the EC50 (Leishmania donovani [1]) was 0.09 µM. The EC50 (Leishmania infantum [9]) was 0.12 µM, the Cp [10] was “Bld” and the solubility [11] was “Insoluble”. For the same compound, the half-life at up to 20 µM [12] was greater than 2 h, the EC50 (Leishmania infantum [13]) was 0.08 µM and the EC50 (Leishmania infantum [14]) was 0.1 µM. The Activity (Leishmania infantum [15]) was “inactive”, the Activity (Leishmania infantum [16]) was 86% and the half-life [17] was less than 0.5 h. For the same compound, the Activity [18] was “Toxic”, the half-life at up to 20 µM [19] was less than 0.5 h and the “Ratio EC50” value (Leishmania donovani [20]) was 2. For the same compound, the concentration at 96 h [21] was greater than 0.09 µM, the “fold change (FC)” value (Leishmania infantum [22]) was 8 and the Tmax [23] was 1 h. It also gave an Activity (Leishmania infantum [24]) of 89%, a half-life [25] greater than 2 h and an EC50 (Leishmania infantum [26]) of 0.12 µM. For the same compound, the Drug uptake [27] was “Bld”, the EC50 (Leishmania infantum [28]) was 0.14 µM and the EC50 (Leishmania infantum [29]) was 0.14 µM. The solubility thermodynamic [30] was 520 µg/mL, the Activity (Leishmania infantum [31]) was 95.3% and the Activity (Leishmania infantum [32]) was 87%. The Activity (Leishmania infantum [33]) was 91%, the EC50 (Leishmania infantum [34]) was 0.11 µM and the Stability [35] was “Stable”. The EC50 (Leishmania infantum [36]) was 0.15 µM, the Activity (Leishmania infantum [37]) was “Dose-dependent effect” and the Activity (Leishmania infantum [38]) was 50 - 74%. The selectivity ratio [2] was 31.2, the Activity (Leishmania infantum [39]) was 97% and the EC50 (Leishmania donovani [3]) was 0.07 µM. For the same compound, the Drug uptake [40] was “Bld”, the half-life [41] was 1 h and the Cmax [42] was 182 µM.

`OCCCCCCCCCCCCCC[P+](c1ccccc1)(c1ccccc1)c1ccccc1` showed an EC50 (THP-1) of 3.05 µM, an EC50 (Leishmania donovani [1]) of 0.35 µM and a selectivity ratio [2] of 8.7. For the same compound, the EC50 (Leishmania donovani [3]) was 0.33 µM.

For `Cc1cc(O)ccc1C(=O)CCCCCCCCCCCCCCC[P+](c1ccccc1)(c1ccccc1)c1ccccn1.[Br-]`, the EC50 (THP-1) was 2.11 µM, the EC50 (Leishmania donovani [1]) was 0.1 µM and the “Ratio EC50” value (Leishmania donovani [20]) was 2. For the same compound, the selectivity ratio [2] was 21.1 and the EC50 (Leishmania donovani [3]) was 0.28 µM.

`COC(=O)c1ccc(OCCCCCCCCCC[P+](c2ccccc2)(c2ccccc2)c2ccccc2)cc1O` gave an EC50 (Leishmania donovani [1]) of less than 1 µM and a selectivity ratio [2] of 2 to 27.

`CCCCCCCCCCCCCCCCOP(=O)([O-])OCC[N+](C)(C)C` [MILTEFOSINE] showed an EC50 (THP-1) of 26.2 µM, an EC50 (Leishmania donovani [1]) of 0.91 µM and a selectivity ratio [2] of 28.8. For the same compound, the EC50 (Leishmania donovani [3]) was 6.51 µM.

For `O=C(O)c1ccc(OCCCCCCCCCC[P+](c2ccccc2)(c2ccccc2)c2ccccc2)cc1O`, the EC50 (Leishmania donovani [1]) was less than 0.2 µM, the selectivity ratio [4] was 2 to 27 and the EC50 (Leishmania donovani [3]) was less than 0.2 µM.
